Our source for the EC50 values is PubChem BioAssay AID1769 (NMMLSC, 2009).

The structures appear in SMILES notation.

For the test, the target named is glutathione S-transferase (Schistosoma japonicum GST tag binding GSH beads). Nature of the test: GST–glutathione bead interaction interference profiling – biochemical, multiplex beads, flow cytometry, profiling panel (AID 1769).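 Note: target is a GST and green fluorescent protein fusion captured on glutathione beads.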 Particulars: flow cytometry fluorescence. For orientation: A flow cytometer gives signals particle by particle.

With `COCCNC(=S)Nc1cc(OC)c(OC)cc1C#N`, the EC50 was 4.9 µM. As to `O=C(O)c1cc(-c2ccc(/C=C3\NC(=O)N(c4ccc(Cl)cc4)C3=O)o2)ccc1Cl`, the EC50 is 11.8 µM. Turning to `CCOC(=O)c1cc(C(=O)OCC)c(=O)[nH]c1N1CCCC1`, the EC50 is 35.9 µM. For the compound `CCOc1cccc(Nc2cc3n(c(=O)n2)CCc2cc(OC)c(OC)cc2-3)c1`, the EC50 is 64.5 µM. Under `COc1cc(N2CCCC2)c(OC)cc1/C=C(/C#N)c1ccc(Br)cc1` stands 0.0745 µM; under `CN(C)S(=O)(=O)c1ccc(C(=O)NNc2nc(-c3ccccc3)c3cc(Br)ccc3n2)cc1`, 4.9 µM; under `Cc1cc(N/N=C/c2ccc(O)cc2O)nc(-n2nc(C)cc2C)n1`, 0.831 µM. To `O=c1nc2c(O)cccn2c2c1c(=O)[nH]c1ccccc12` belongs 2.6 µM; to `Cc1cc(-c2nnc3n2N=C(c2ccc(-c4ccccc4)cc2)CS3)n[nH]1`, 6.8 µM.

As for `Cc1ccc(NC(=O)Nc2ccnc(-c3cccnc3)n2)cc1`, the EC50 is 2.07 µM. To `COc1ccc(S(=O)(=O)N2CCOCC2)cc1NC(=O)COc1cccnc1[N+](=O)[O-]` belongs 64 µM; to `Cc1cccc(/C=N/N(CCO)C2=NS(=O)(=O)c3ccccc32)c1`, 60.2 µM. As for `O=C1/C(=C\c2ccc(-c3ccccc3Cl)o2)SC(=S)N1CC1CCCO1` (configuration not stated), the EC50 was 17.3 µM. Under `Cc1ccc(-c2csc3nc4c5ccccc5c(NCCCN5CCOCC5)nn4c(=O)c23)cc1` stands 0.346 µM; under `COc1ccc(-c2c3c(nc4sc5c(=O)[nH]c(C)nc5c24)CCC3)cc1`, 3.74 µM. To `COc1cc(N2CCCC2)c(OC)cc1/C=C(/C#N)c1cccc(F)c1` belongs 1.71 µM.

For the compound `Cc1ccc(Nc2nc(-c3c(C)nc4ncccn34)cs2)cc1`, the EC50 is 34.8 µM.

Consider `Cc1cc2nc3c(=O)[nH]c(=O)[nH]c3nc2c([N+](=O)[O-])c1N`, for which the EC50 was 1.18 µM.

Regarding `O=[N+]([O-])c1ccc(/C=C/C2=NN(c3ccccc3)C(c3ccco3)C2)cc1` (configuration not stated), the EC50 is 1.34 µM.

For `COc1cccc2cc(-c3ccnc(=S)[nH]3)oc12`, the EC50 was 28.8 µM. Under `Oc1c(CN2CCOCC2)ccc2ccccc12` stands 24.5 µM. Under `CCOc1cc(/C=C2\SC(=O)N=C2N)ccc1O` stands 2.47 µM; under `Cc1nc2ncccn2c1-c1csc(Nc2ccc(O)cc2)n1`, 0.265 µM.

Turning to `CC(C)(C)c1ccc(C(=O)CC(Sc2ccc(Cl)cc2)C(=O)O)cc1` (configuration not stated), the EC50 is 3.51 µM. As to `C=CCNc1nc(=S)[nH]c2cc(OC)c(OC)cc12`, the EC50 is 13.3 µM. Under `COc1ccc(N/C=C/c2nc(SC)nnc2C)cc1` stands 2.76 µM. To `COc1cc2c(cc1OC)-c1cc(NC3CCCCCC3)nc(=O)n1CC2` belongs 21 µM.

For the compound `COc1ccc(-c2csc(C3=C(O)CN(C(C)C)C3=N)n2)cc1OC`, the EC50 is 87.3 µM. On to `N#Cc1ccc2ccn(CC(=O)N3CCCc4ccccc43)c2c1`, for which the EC50 is 2.4 µM. Turning to `O=C(OCC1O[C@@H](OC(=O)c2cc(O)c(O)c(O)c2)[C@@H](OC(=O)c2cc(O)c(O)c(O)c2)[C@@H](OC(=O)c2cc(O)c(O)c(O)c2)[C@@H]1OC(=O)c1cc(O)c(O)c(O)c1)c1cc(O)c(O)c(O)c1` (some centres not stated), the EC50 is 0.951 µM. To `CCOc1ccc(CCNc2ccc3nnc(-c4ccccc4)n3n2)cc1OCC` belongs 2.29 µM. Under `COc1cc(/C=C2/SC(=Nc3ccc(O)cc3)NC2=O)cc(OC)c1O` stands 0.974 µM; under `CC(C)NC(=S)N=Nc1c(O)[nH]c2ccc([N+](=O)[O-])cc12`, 1.43 µM; under `O=C(Nc1cccc(Cl)c1)Nc1ccnc(-c2cccnc2)n1`, 0.499 µM. To `CN(/N=C/c1cccnc1)C1=NS(=O)(=O)c2ccccc21` belongs 5.05 µM; to `CN(/N=C/C=C/c1ccccc1)C1=NS(=O)(=O)c2ccccc21`, 6.02 µM; to `O=c1c2ccccc2nc2ccc(NCc3cccs3)nn12`, 6.79 µM. For the compound `COc1cc2nc(=S)n(CCCN3CCOCC3)c(N)c2cc1OC`, the EC50 is 11 µM. Under `COc1cc(C(=S)NCc2ccccc2)cc(Br)c1O` stands 53.7 µM.

As for `COc1ccc(S(=O)(=O)N2CCCCC2)cc1NC(=O)c1ccc([N+](=O)[O-])o1`, the EC50 was 28.6 µM. Under `COc1cc2c(cc1OC)-c1cc(NCc3ccccn3)nc(=O)n1CC2` stands 1.96 µM; under `Cc1cccc(S(=O)(=O)c2c(N)n(/N=C/c3cccnc3)c3nc4ccccc4nc23)c1`, 3.42 µM.

In general, EC50 refers to the concentration needed to bring the measured effect to its halfway point.
